Read-outs that look alike come from different tables or passages of the source.
Tests used:
A2780 cells [1] = assay: Mitochondrial membrane potential analysis (MITO-ID); format: cell-based, human; conditions: A2780, half-cytotoxic concentration, 24 h
Description: The A2780 cells were seeded in 24-well cell culture plates at 5 × 10^4 cells/well and cultivated for 24 h. The next day, the complex (1) was added to a final concentration of 4 µM, and the cells were incubated for another 24 h. […] The cells were then isolated by centrifugation and resuspended in a staining solution prepared according to the manufacturer’s protocol from a MITO-ID® Membrane Potential Detection kit (Enzo Life Sciences, USA). Finally, the cells were analyzed using a BD FACSVerse flow cytometer (Becton Dickinson, USA). The control was carried out by treatment with 2 µM carbonyl cyanide 3-chlorophenylhydrazone (CCCP). Three independent experiments were conducted, each in duplicate.

[2] = system: A2780R Cisplatin-resistant ovarian carcinoma cells; assay: In vitro cytotoxicity (MTT assay), A2780R; format: cell-based, human; conditions: ± standard deviation, triplicate
Description: (§1) The testing was performed on the ovarian carcinoma (A2780), Cisplatin-resistant ovarian carcinoma (A2780R), prostate adenocarcinoma (PC-3), prostate carcinoma (22Rv1), and leukemia monocytic (THP-1) and intestinal colon adenocarcinoma (LS180) human cell lines that were obtained from the ATCC collection of cell lines and cultivated according to the producer’s instructions. The reference normal cell line of human fetal fibroblasts (MRC-5) was obtained from the same commercial source and maintained according to the producer’s instructions. The half-maximal inhibitory concentrations (IC50) were calculated from dose–response curves by means of the GraphPad Prism 6 software (GraphPad Software, San Diego, CA, USA).

THP1-Blue™ NF-κB cells = assay: Cell viability, CCK-8, serum-free medium; format: cell-based, human
Description: The cells were cultivated in RPMI (Roswell Park Memorial Institute) 1640 medium (Biosera; Nuaille, France) supplemented with 10% fetal bovine serum (FBS) and antibiotics (100 U/mL penicillin and […] streptomycin) (both from Merck). All further experiments were performed in serum-free medium. The effect of the test compounds dissolved in DMF on cell viability after 24 h incubation was determined using a Cell Counting Kit-8 (CCK-8; Merck) according to the manufacturer’s instructions, similarly as previously described.

A2780 cells [3] = assay: Time-dependent cellular uptake of gold (ICP-MS); format: in vitro ADME, human
Description: Figure 3 The intracellular gold concentration levels caused by the incubation of [Au(kin)(PPh3)] (1), [Au(PPh3)Cl], and Auranofin with A2780 cells after 2 h, 6 h, 12 h, 24 h, 48 h, and 72 h. The results were obtained by ICP-MS analyses of three parallel samples and are shown as mean values with error bars corresponding to the standard deviation values of the gold concentration expressed in ng of gold per 10^6 cells. TEXT PRINTED IN THE PICTURE: [Au(kin)PPh3] (1): Intracellular Au content [ng/10^6 cells]: 121.3; Intracellular Au content [ng/10^6 cells]: 97.1; Intracellular Au content [ng/10^6 cells]: 88.8; Intracellular Au content [ng/10^6 cells]: 89.4; Intracellular Au content [ng/10^6 cells]: 287.5; Intracellular Au content [ng/10^6 cells]: 352.9 | Auranofin: Intracellular Au content [ng/10^6 cells]: 182.5; Intracellular Au content [ng/10^6 cells]: 231.1; Intracellular Au content [ng/10^6 cells]: 361.3; Intracellular Au content [ng/10^6 cells]: 333.9; Intracellular Au content [ng/10^6 cells]: 555.3; Intracellular Au content [ng/10^6 cells]: 320.2 | [Au(PPh3)Cl]: Intracellular Au content [ng/10^6 cells]: 84.6; Intracellular Au content [ng/10^6 cells]: 106.1; Intracellular Au content [ng/10^6 cells]: 80.7; Intracellular Au content [ng/10^6 cells]: 97.6; Intracellular Au content [ng/10^6 cells]: 304.2; Intracellular Au content [ng/10^6 cells]: 415.8 DOUBTS OF THE COPYIST ABOUT THIS PICTURE: Point labels are black, not coloured by series. Where the [Au(kin)PPh3] (1) and [Au(PPh3)Cl] curves run close together, I assigned the labels by their position above or below the points: 97.1/106.1, 88.8/80.7, 89.4/97.6 and 287.5/304.2. These assignments are not fully certain. / No incubation time is printed beside any point label, only on the axis, so no time condition is given with the values.

[4] = system: A2780 ovarian carcinoma cells; assay: In vitro cytotoxicity (MTT assay), A2780; format: cell-based, human
Description: The reference normal cell line of human fetal fibroblasts (MRC-5) was obtained from the same commercial source and maintained according to the producer’s instructions. The half-maximal inhibitory concentrations (IC50) were calculated from dose–response curves by means of the GraphPad Prism 6 software (GraphPad Software, San Diego, CA, USA).

[5] = system: MRC5 human fetal fibroblasts; assay: In vitro cytotoxicity (MTT assay), normal MRC-5 fibroblasts; format: cell-based; conditions: ± standard deviation, triplicate, read-out: IC50, MRC5 (healthy cells)
Description: as §1

A2780 cells [6] = assay: Induction of autophagy (CYTO-ID kit); format: cell-based, human; conditions: A2780, half-cytotoxic concentration, 24 h
Description: The induction of autophagy by complex (1) was studied using a CYTO-ID® Autophagy Detection Kit 2.0 (ENZO, New York, NY, USA) according to the manufacturer’s protocol. Briefly, the A2780 cells were seeded in a 24-well cell culture plate at 5 × 10^4 cells per well and cultivated for 24 h. The next day, the cells were treated with complex (1) at 4 µM. […] Then, the cells were stained with CYTO-ID® Green stain solution and incubated for 30 min in the dark. After the final wash with PBS, the cell suspensions were analyzed using the BD FACSVerse flow cytometer (Becton Dickinson, USA) in three separate experiments, while at least 10^4 events were recorded for each sample prepared in duplicates. The cells incubated with the mixture of chloroquine (10 µM) and rapamycin (0.5 µM) for 18 h were used as a positive control.

A2780 cells [7] = assay: Cell cycle analysis (flow cytometry); format: cell-based, human; conditions: A2780, half-cytotoxic concentration, 24 h
Description: After 24 h, the cells were treated with a 4 µM solution of complex (1) and cultivated for the next 24 h. Then, the cells were washed once with PBS (0.1 M, pH 7.4), and cell cycle analysis was performed using a BD Cycletest^TM Plus DNA kit (Becton Dickinson, Franklin Lakes, NJ, USA) according to the manufacturer’s protocol. The data were acquired using a BD FACSVerse flow cytometer (Becton Dickinson, USA) in three independent experiments, each performed in duplicate, while at least 5 × 10^3 events were recorded for each sample.

[8] = MTT, 24 h incubation, ± standard deviation, triplicate, read-out: IC50, A2780

Q: [Cl][Au].c1ccc(P(c2ccccc2)c2ccccc2)cc1 [[Au(PPh3)Cl]] was tested. Which “Damage to mitochondrial membranes” value (A2780 cells [1]) did it give?
A: Its value is “Significant changes in mitochondrial membrane permeability”.

Q: What about the IC50 [2] of the same compound?
A: The IC50 was 5.2 ± 0.2 µM.

Q: And the IC50 (THP1-Blue™ NF-κB cells)?
A: The IC50 was 1.1 ± 1.1 µM.

Q: And the “Intracellular Au content, 2 h” value (A2780 cells [3])?
A: Its value is 84.6 ng/10^6 cells.

Q: What about the “Intracellular Au content, 6 h” value (A2780 cells [3]) of the same compound?
A: Its value is 106.1 ng/10^6 cells.

Q: And the “Intracellular Au content, 12 h” value (A2780 cells [3])?
A: Its value is 80.7 ng/10^6 cells.

Q: What about the “Intracellular Au content, 24 h” value (A2780 cells [3]) of the same compound?
A: Its value is 97.6 ng/10^6 cells.

Q: What about the “Intracellular Au content, 48 h” value (A2780 cells [3]) of the same compound?
A: Its value is 304.2 ng/10^6 cells.

Q: What about the “Intracellular Au content, 72 h” value (A2780 cells [3]) of the same compound?
A: The value was 415.8 ng/10^6 cells.

Q: What about the IC50 [4, 8] of the same compound?
A: The IC50 was 3.5 ± 0.5 µM.

Q: What about the IC50 ([4]; read-out: IC50, A2780, after 48 h and 72 h incubation, 48 h and 72 h incubation, insignificant changes) of the same compound?
A: Its IC50 is ~3 µM.

Q: What about the IC50 [5] of the same compound?
A: The IC50 was 17 ± 0.5 µM.

Q: What about the “Induction of autophagy” value (A2780 cells [6]) of the same compound?
A: The value was “significantly induced the autophagy”.

Q: And the “Effect on the cell cycle” value (A2780 cells [7])?
A: Its value is “practically no effect on the cell cycle”.

Q: Which results are given for CC[PH](CC)(CC)[Au][S][C@@H]1O[C@H](COC(C)=O)[C@@H](OC(C)=O)[C@H](OC(C)=O)[C@H]1OC(C)=O [Auranofin, [3,4,5-triacetyloxy-6-(acetyloxymethyl)-oxane-2-thiolate-(triethylphosphine)gold(I)]]?
A: Cells with loss of mitochondrial membrane potential (A2780 cells [1]): more than 80%; IC50 [2]: 3.4 ± 0.6 µM; IC50 (THP1-Blue™ NF-κB cells; THP1-Blue NF-κB cells, serum-free medium, 24 h treatment, CCK-8, read-out: IC50 ± SEM, cytotoxic effect): 0.5 ± 1.1 µM; Excess of intracellular gold level over [Au(kin)(PPh3)] and [Au(PPh3)Cl] (A2780 cells [3]; A2780 cells, after 12 h of incubation): up to 4 times; IC50 ([4]; 24 h incubation, read-out: Time-dependent in vitro cytotoxicity (IC50), A2780, 24 h): 3.4 ± 0.9 µM; IC50 ([4]; 72 h incubation, read-out: Time-dependent in vitro cytotoxicity (IC50), A2780, 72 h): 2 ± 0.1 µM; IC50 [4, 8]: 3.4 ± 0.9 µM; IC50 ([4]; read-out: Time-dependent in vitro cytotoxicity (IC50), A2780, 48 h, 48 h incubation): 2.1 ± 0.4 µM; IC50 [5]: 3.78 ± 0.01 µM; Induction of autophagy (A2780 cells [6]): not shown to cause metabolic stress strong enough to induce the autophagy; Population of cells in G2/M phase (A2780 cells [7]): 23.3 ± 3.6%; Population of cells in S phase (A2780 cells [7]): 19.4 ± 0.5%; Number of cells in the G0/G1 phase (A2780 cells [7]; vs untreated control): significant decrease in the number of cells in the G0/G1 phase

Source: paper PMC9916778 (International Journal of Molecular Sciences, 2023)
